Data taken from US9205124B2, “Compounds for enzyme inhibition” (Onyx Therapeutics, Inc., priority 2005, dated 2015).

Test system: proteasome CT-L activity
Experiment: Proteasome CT-L activity in blood lysates of mice one hour after oral dosing (LLVY-AMC cleavage)
Assay type: in vivo
Conditions: one hour post-dosing, vs vehicle-dosed cohort
Procedure: Compounds were formulated in 10% PS80/NaCitrate (pH 3) vehicle and administered to mice orally (PO) (3 animals/cohort). One hour post-dosing, the animals were sacrificed and the following tissues harvested: blood, brain, adrenal gland, heart and liver. Whole blood (˜200 μl) was washed twice with PBS and lysed by hypotonic shock (300 μl 50 mM Tris pH 8, 5 mM EDTA). Blood lysates were stored at −80° C. until assayed. Blood lysates were clarified by centrifugation in a microcentrifuge. The CT-L specific activity of proteasome in each lysate was evaluated by determining: a) the protein concentration by modified Bradford assay with bovine gamma globulin as a standard; and b) the rate of cleavage of the fluorogenic proteasome substrate LLVY-AMC. The percent proteasome activity for the analog-treated animals was calculated by dividing of the average specific activity for each analog-dosed cohort by the average specific activity of the vehicle-dosed cohort. Percent proteasome inhibition was calculated by subtracting percent proteasome activity from 100.

SMILES | proteasome CT-L inhibition (20 mg/kg PO) [%] | proteasome CT-L inhibition (40 mg/kg PO) [%]
Cc1cc(C(=O)N[C@@H](Cc2ccccn2)C(=O)N[C@@H](Cc2ccccc2)C(=O)N[C@@H](CC(C)C)C(=O)[C@@]2(C)CO2)no1 [Compound (055)] | > 80 | –
COC[C@H](NC(=O)c1cc(C)on1)C(=O)N[C@@H](Cc1cscn1)C(=O)N[C@@H](CC(C)C)C(=O)[C@@]1(C)CO1 [Compound (039)] | > 75 | –
CC(C)C[C@H](NC(=O)[C@H](Cc1ccccc1)NC(=O)[C@@H](NC(=O)c1cc(CN2CCOCC2)on1)C(C)C)C(=O)[C@@]1(C)CO1 [Compound (061)] | – | > 80
COCC[C@H](NC(=O)c1cc(C(C)C)on1)C(=O)N[C@@H](Cc1ccccc1)C(=O)N[C@@H](CC(C)C)C(=O)[C@@]1(C)CO1 [Compound (068)] | – | > 70
COC[C@H](NC(=O)c1cc(C)on1)C(=O)N[C@H](C(=O)N[C@@H](CC(C)C)C(=O)[C@@]1(C)CO1)C(C)C [Compound (029)] | > 70 | –
CC(C)C[C@H](NC(=O)c1cc(CN2CCOCC2)on1)C(=O)N[C@@H](Cc1ccccc1)C(=O)N[C@@H](CC(C)C)C(=O)[C@@]1(C)CO1 [Compound (023)] | – | > 80
COC[C@H](NC(=O)c1cc(C)on1)C(=O)N[C@@H](Cc1ccccc1)C(=O)N[C@@H](CC(C)C)C(=O)[C@@]1(C)CO1 [Compound (010)] | – | > 90
COC[C@H](NC(=O)c1cc(C)no1)C(=O)N[C@@H](COC)C(=O)N[C@@H](CC(C)C)C(=O)[C@@]1(C)CO1 [Compound (085)] | > 50 | –
COC[C@H](NC(=O)c1ccon1)C(=O)N[C@@H](COC)C(=O)N[C@@H](CC(C)C)C(=O)[C@@]1(C)CO1 [Compound (083)] | > 80 | –
